According to patent US20250082630A1, “METHODS OF TREATING BRAIN TUMOURS AND NEUROBLASTOMAS” (AstraZeneca AB, priority 2021, published 2025):

Columns and labels:
[1] = system: U87 IDH1 wt and IDH1 mt isogenic pairs; assay: Combination assay PARP inhibitor with VAL-083, U87 isogenic pairs; format: cell-based
Procedure: (§1) To evaluate the activity and potency of the PARP inhibitors described herein in combination with the standard of care chemotherapy Temozolamide (TMZ), ionizing radiation (IR) and the emerging chemotherapy VAL-083, U87, SJG2 and BT245 glioblastoma cells were assayed. Parental U87 cell lines were obtained from the AstraZeneca Global Cell Bank in Alderley Park, UK and the isocistrate dehydrogenase 1 mutant cell line (IDH1 mt R1 32H) was licensed in from ATCC. The SJ-G2 (ATRX mutant) and BT245 (H3K27M mutant) cell lines were obtained from The Research Institute of the McGill University Health Centre, Montreal, QC H4A 3J1, Canada. IDH1R132 mutation was induced in SJG2 cell line to generated isogenic pair (SJG2 IDH1mt and SJG2 IDH1 wt). […]
(§2) For the nuclear count end point assay, cells were fixed for ˜15 minutes (min) by the addition of 50 μl per well of Formaldehyde (Sigma-Aldrich F8775). […] The images were acquired using CellInsight CX5 (Thermo Fisher) and analysed by measuring the total number of hoechst stained nuclei. The number of nuclei (% confluence) of the drug treated wells were normalised to the DMSO control and the growth inhibition was calculated using the combenefit software (Di Veroli et al., 2016).

U87 IDH1 mt R132H = assay: Combination assay PARP inhibitor with TMZ, U87 IDH1mt; format: cell-based
Procedure: as §1, §2

[2] = system: PARylation in U87 isogenic pair; assay: PARylation inhibition in U87 isogenic pair; format: cell-based; conditions: data not shown
SJ-G2 IDH1mt ATRXmt = assay: cells; conditions: SJ-G2, read-out: Compound 20 IC50
Procedure: as §1, §2

[3] = system: SJ-G2 IDH1 wt and IDH1mt isogenic pairs; assay: Combination assay PARP inhibitor with TMZ, SJ-G2 isogenic pairs; format: cell-based
Procedure: as §1, §2

[4] = system: SJ-G2 IDH1 wt and IDH1mt isogenic pairs; assay: Combination assay PARP inhibitor with VAL-083, SJ-G2 isogenic pairs; format: cell-based
Procedure: as §1, §2

U87MG xenograft = format: in vivo, female Nude mice; conditions: Compound 20 3 mg/kg QD in combination with TMZ 6.25 mg/kg QD on days 1-5 and 29-33, PO
Procedure: U87MG cells (2.5 million in serum-free MEM medium) were implanted subcutaneously (SC) into the dorsal flank of female Nude mice (weight greater than 18 g). Tumours were measured (length x width) two times weekly by bilateral Vernier calliper measurements and tumour volume was calculated using elliptical formula (π/6×width×width×length). Animal bodyweight and tumour condition were monitored throughout the study. Mice were randomised into treatment groups when mean tumour volume reached approximately 0.2 cm^3.
Animals were treated orally (PO) from the day after the randomisation. Control animals were treated with vehicle (water/methane sulfonic acid (MSA) pH3-3.2) once daily for 10 days (QD×10). PARP inhibitor in water/MSA pH3-3.2 was dosed in the monotherapy and combination groups at 3 mg/kg QD×10 or QD×33, respectively. Temozolomide (TMZ) in OraPlus Perrigo was dosed in the monotherapy group at 25 mg/kg QD on days 1-5 and 29-33, and in monotherapy and combination group at 6.25 mg/kg QD on days 1-5 and 29-33.
Tumour growth inhibition from start of treatment was assessed by comparison of the mean change in tumour volume (TV) of the control and treated groups and represented as percent tumour growth inhibition (TGI, when tumour volume (TV) >starting TV) or tumour regression (reg, when TV<starting TV). Statistical significance was evaluated using a one-tailed t test. Statistical significance is indicated as follows: *p:0.05, **p:0.01, ***p:0.001.

U87 IDH1wt ATRXwt = assay: Monotherapy treatment, U87 IDH1wt ATRXwt; format: cell-based; conditions: read-out: Compound 20 IC50
Procedure: as §1, §2

PARP1 = PARP1 (Homo sapiens (Human), UniProt P09874); assay: PARP1 trapping; format: cell-based; conditions: data not shown
Sequence of PARP1 (P09874 whole entry): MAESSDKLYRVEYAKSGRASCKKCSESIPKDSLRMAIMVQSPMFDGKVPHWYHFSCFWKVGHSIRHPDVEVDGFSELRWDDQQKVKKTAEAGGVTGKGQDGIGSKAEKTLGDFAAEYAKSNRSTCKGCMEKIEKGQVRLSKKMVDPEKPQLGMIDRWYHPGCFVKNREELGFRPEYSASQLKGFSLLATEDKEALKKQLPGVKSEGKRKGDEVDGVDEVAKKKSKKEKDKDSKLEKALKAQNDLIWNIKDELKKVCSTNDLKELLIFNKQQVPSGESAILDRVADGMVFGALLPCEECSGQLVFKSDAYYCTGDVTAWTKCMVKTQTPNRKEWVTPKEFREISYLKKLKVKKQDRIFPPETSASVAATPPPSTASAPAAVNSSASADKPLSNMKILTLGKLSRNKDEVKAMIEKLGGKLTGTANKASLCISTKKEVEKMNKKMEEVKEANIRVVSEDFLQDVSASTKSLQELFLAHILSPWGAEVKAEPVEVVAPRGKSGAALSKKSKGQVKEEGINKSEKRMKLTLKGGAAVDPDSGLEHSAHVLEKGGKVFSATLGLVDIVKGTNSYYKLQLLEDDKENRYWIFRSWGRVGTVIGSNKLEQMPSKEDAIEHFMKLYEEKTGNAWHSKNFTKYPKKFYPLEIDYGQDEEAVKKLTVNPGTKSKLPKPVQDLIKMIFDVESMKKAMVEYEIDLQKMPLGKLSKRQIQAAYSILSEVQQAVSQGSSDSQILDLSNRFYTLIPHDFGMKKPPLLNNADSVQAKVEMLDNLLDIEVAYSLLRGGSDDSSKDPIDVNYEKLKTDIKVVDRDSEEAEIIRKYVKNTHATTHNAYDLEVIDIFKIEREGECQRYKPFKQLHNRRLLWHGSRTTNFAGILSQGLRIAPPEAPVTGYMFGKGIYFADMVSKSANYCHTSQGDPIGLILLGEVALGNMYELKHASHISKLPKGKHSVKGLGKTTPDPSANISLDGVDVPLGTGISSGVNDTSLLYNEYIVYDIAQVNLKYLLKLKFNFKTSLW

SJ-G2 IDH1wt ATRXmt = assay: Monotherapy treatment, SJ-G2 IDH1wt ATRXmt; format: cell-based
Procedure: DMSO served as a vehicle control.
The plates were washed again and PBS was added.

Structure (SMILES): CNC(=O)c1ccc(N2CCN(Cc3ccc4nc(C)c(=O)[nH]c4c3F)CC2)c(F)n1 [Example 20, 6-fluoro-5-[4-[(5-fluoro-2-methyl-3-oxo-4H-quinoxalin-6-yl)methyl]piperazin-1-yl]-N-methyl-pyridine-2-carboxamide]
- combination effect with VAL-083 [1]: synergises with VAL-083
- concentration at which Compound 20 synergises with TMZ (U87 IDH1 mt R132H; U87 IDH1mt): 1 µM
- lower concentration for synergy with TMZ in IDH1mt compared to wild type (U87 IDH1 mt R132H; U87 IDH1mt vs IDH1 wt): 10 fold
- IC95 for PARylation inhibition [2]: 0.008 µM
- IC50 (SJ-G2 IDH1mt ATRXmt): 1.75 µM
- lowest PARP inhibitor concentration significantly enhancing the TMZ effect [3]: 10 nM
- activity in the absence of VAL-083 ([4]; 1 μM Compound 20, ATRX mutant cell lines): has activity
- combination effect with VAL-083 ([4]; SJ-G2 IDH1 wt and IDH1mt, ATRX mutant): enhanced combination benefit
- tumour regression (U87MG xenograft): 95%
- tumours regressed (U87MG xenograft): 8/8
- IC50 (U87 IDH1wt ATRXwt): > 100 µM
- lowest concentration with potent trapping of PARP1 (PARP1): 10 nM
- IC50 (SJ-G2 IDH1wt ATRXmt; SJ-G2, read-out: Compound 20 IC50): 2.34 µM
- higher sensitivity compared to the ATRXwt U87 model (SJ-G2 IDH1wt ATRXmt; SJ-G2 ATRXmt model, monotherapy): about 40 fold
